The values that follow come from ChEMBL document CHEMBL5143584, “A dual aurora and lim kinase inhibitor reduces glioblastoma proliferation and invasion” (Bioorg Med Chem Lett, 2022).

Series [1] deals with GBM. Kind of series: Antiproliferative activity against fluorescently labelled human GBM cells are co-cultured with mature brain organoids differentiated from iPSCs assessed as reduction in total number of GBM cells incubated for 10 days by fluorescent confocal microscopy. The note with it: time 10.0 day. In kind it is functional, cell-based.
Series [2] can be described thus: Toxicity in human mature brain organoids differentiated from iPSCs assessed as decrease in organoid volume and surface area incubated for 10 days. The note with it: 240 h, time 10 day. In kind it is cell-based.
Series [3] deals with GBM. Kind of series: Anti-invasion activity against fluorescently labelled human GBM cells are co-cultured with mature brain organoids differentiated from iPSCs assessed as reduction in number of invading GBM cells incubated for 10 days by fluorescent confocal microscopy. In kind it is functional, cell-based. The note with it: time 10.0 day.
Series [4] in a line: Toxicity in human mature brain organoids differentiated from iPSCs assessed as decrease in organoid volume and surface area at 500 nM incubated for 10 days. The series is classed as cell-based. The note with it: 240 h, 0.5 µM, time 10 day.
In the next series the target is Aurora kinase B (Homo sapiens, UniProt Q96GD4). Kind of series: Inhibition of AURKB (unknown origin).
Sequence of Aurora kinase B (Q96GD4 whole entry): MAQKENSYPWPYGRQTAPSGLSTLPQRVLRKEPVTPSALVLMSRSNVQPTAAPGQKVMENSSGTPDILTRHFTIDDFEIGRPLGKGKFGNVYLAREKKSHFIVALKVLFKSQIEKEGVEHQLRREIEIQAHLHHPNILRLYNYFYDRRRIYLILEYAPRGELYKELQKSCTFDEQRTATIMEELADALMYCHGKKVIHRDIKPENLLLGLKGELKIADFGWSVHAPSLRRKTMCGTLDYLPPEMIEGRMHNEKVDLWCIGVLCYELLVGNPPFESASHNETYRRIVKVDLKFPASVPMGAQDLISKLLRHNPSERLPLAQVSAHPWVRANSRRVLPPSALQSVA
Series [5] deals with GBM. Kind of series: Antiproliferative activity against fluorescently labelled human GBM cells are co-cultured with mature brain organoids differentiated from iPSCs assessed as reduction in total number of GBM cells by FACS. In kind it is functional, cell-based. (In general: A flow cytometer gives signals particle by particle.)
A short description of series [6]: Antiproliferative activity against human GBM22 cells assessed as inhibition of cell proliferation incubated for 48 hrs by live/dead fluorescence imaging-based assay. In kind it is functional. The note with it: GBM.
Series [7] can be described thus: Antiproliferative activity against human GBM22 cells assessed as inhibition of cell proliferation by CellTiter-Glo ATP content assay. In kind it is functional, cell-based. The note with it: GBM. For orientation: In ATP-based viability assays light output follows the ATP content of the culture.
Series [8] in a line: Antiproliferative activity against human GBM22 cells assessed as inhibition of cell proliferation incubated for 24 hrs by live/dead fluorescence imaging-based assay. The note with it: GBM. The series is classed as functional.
Series [9] concerns GBM. Kind of series: Anti-invasion activity against fluorescently labelled human GBM cells are co-cultured with mature brain organoids differentiated from iPSCs assessed as reduction in number of invading GBM cells at 500 nM incubated for 10 days by fluorescent confocal microscopy. The series is classed as functional, cell-based. The note with it: time 10.0 day.
A further series addresses T1, Aurora kinase A (Homo sapiens, UniProt O14965).
T1 sequence (O14965 whole entry): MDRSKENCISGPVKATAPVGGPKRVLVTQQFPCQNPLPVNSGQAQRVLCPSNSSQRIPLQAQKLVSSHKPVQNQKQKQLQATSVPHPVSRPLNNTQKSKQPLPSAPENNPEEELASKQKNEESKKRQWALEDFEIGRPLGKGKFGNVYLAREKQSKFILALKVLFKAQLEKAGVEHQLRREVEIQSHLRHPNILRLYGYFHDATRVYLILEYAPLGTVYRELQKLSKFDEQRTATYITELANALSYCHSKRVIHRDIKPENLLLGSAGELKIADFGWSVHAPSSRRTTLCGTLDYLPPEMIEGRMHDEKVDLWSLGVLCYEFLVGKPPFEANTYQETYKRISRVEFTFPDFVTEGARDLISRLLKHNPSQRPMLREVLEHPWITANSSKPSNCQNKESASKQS
Kind of series: Inhibition of AURKA (unknown origin).

The subject of series [10] is GBM. Kind of series: Antiproliferative activity against fluorescently labelled human GBM cells are co-cultured with mature brain organoids differentiated from iPSCs assessed as reduction in total number of GBM cells at 500 nM incubated for 10 days by fluorescent confocal microscopy. In kind it is functional, cell-based. The note with it: time 10.0 day.
In another series the target is LIM domain kinase 1 (Homo sapiens, UniProt P53667). Kind of series: Inhibition of LIMK1 (unknown origin).
Sequence of LIM domain kinase 1 (P53667 whole entry, the tested form may be a part): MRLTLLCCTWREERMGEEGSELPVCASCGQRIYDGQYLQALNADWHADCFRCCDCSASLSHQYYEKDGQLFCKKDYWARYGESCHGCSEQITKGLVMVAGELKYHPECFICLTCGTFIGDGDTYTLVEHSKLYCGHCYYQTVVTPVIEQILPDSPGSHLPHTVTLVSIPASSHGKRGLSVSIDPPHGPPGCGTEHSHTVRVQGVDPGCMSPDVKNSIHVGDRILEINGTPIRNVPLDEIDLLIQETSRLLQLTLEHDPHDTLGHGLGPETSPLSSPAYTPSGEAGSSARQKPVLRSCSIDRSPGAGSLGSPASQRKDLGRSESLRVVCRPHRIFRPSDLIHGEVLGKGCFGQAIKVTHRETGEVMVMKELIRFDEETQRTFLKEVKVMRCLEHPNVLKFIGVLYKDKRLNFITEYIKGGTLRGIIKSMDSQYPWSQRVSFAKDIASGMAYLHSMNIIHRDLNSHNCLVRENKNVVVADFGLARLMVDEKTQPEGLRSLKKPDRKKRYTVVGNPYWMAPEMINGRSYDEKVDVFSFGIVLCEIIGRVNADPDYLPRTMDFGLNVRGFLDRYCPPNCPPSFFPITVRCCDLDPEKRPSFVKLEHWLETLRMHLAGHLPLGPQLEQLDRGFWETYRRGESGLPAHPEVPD

The source made the active and inactive calls. No cut-off for these calls is given here.

On to `CC(C)C(=O)Nc1ncc(-c2cc(C(F)F)nn2-c2c(Cl)cccc2Cl)s1`, for which the result in the series on GBM [1] and in the series on GBM [3] was Active. In addition, the Activity entry in series [2] is on record as “Non-Toxic”.

Consider `Cc1csc(-c2nnc(Nc3ccc(Oc4ncccc4-c4ccnc(N)n4)cc3)c3ccccc23)c1` [AMG-900], for which the outcome in the series with GBM [1] was Active. The Activity result in series [2] is “Non-Toxic”.

`CC(C)n1cc(Nc2ncc3ccc(=O)n(C(C)C)c3n2)cn1`: in series [4], the Activity result is “Toxic”. For the same molecule, the IC50 (in general, the concentration that gives 50% inhibition) at Aurora kinase B was 17 nM; in [6], 1530 nM; in series [7], 5340 nM; in series [8], 2460 nM; on Aurora kinase A, 72 nM; against LIM domain kinase 1 it was 137 nM. The result in the series with GBM [5], with GBM [9] and in the series with GBM [10] was Active.
